# Reference: ChEMBL document CHEMBL4152293, “Synthesis and biological evaluation of podophyllotoxin derivatives as selective antitumor agents” (Eur J Med Chem, 2018)
# Experiments:
# A549 [1] = experiment: Cytotoxicity against human A549 cells assessed as growth inhibition after 72 hrs by MTT assay; type: functional, cell-based; conditions: A549, 72 h
# MCF7 = experiment: Cytotoxicity against human MCF7 cells assessed as growth inhibition after 72 hrs by MTT assay; type: functional, cell-based; conditions: MCF7, 72 h
# [2] = Selectivity index, ratio of IC50 for human L02 cells to IC50 for human A549 cells; type: toxicity; conditions: L02 cells versus A549 cells, read-out: Ratio IC50
# L02 [3] = experiment: Induction of morphological changes in human L02 cells at 10 to 30 nM after 72 hrs by DAPI staining-based fluorescence microscopic method; type: cell-based; conditions: l02, 72 h, 0.03 µM
# A549 [4] = experiment: Induction of apoptosis in human A549 cells assessed as early apoptotic cells at 10 nM after 72 hrs by annexin V-FITC/propidium iodide staining-based flow cytometric method (reference value: 3%); type: functional
# A549 [5] = experiment: Induction of apoptosis in human A549 cells assessed as necrotic cells at 10 nM after 72 hrs by annexin V-FITC/propidium iodide staining-based flow cytometric method (reference value: 0.1%); type: functional
# A549 [6] = experiment: Induction of apoptosis in human A549 cells assessed as early apoptotic cells at 100 nM after 72 hrs by annexin V-FITC/propidium iodide staining-based flow cytometric method (reference value: 3%); type: functional
# A549 [7] = experiment: Induction of apoptosis in human A549 cells assessed as late apoptotic cells at 100 nM after 72 hrs by annexin V-FITC/propidium iodide staining-based flow cytometric method (reference value: 4.1%); type: functional
# A549 [8] = experiment: Induction of apoptosis in human A549 cells assessed as viable cells at 100 nM after 72 hrs by annexin V-FITC/propidium iodide staining-based flow cytometric method (reference value: 92.8%); type: functional; conditions: A549, 72 h, read-out: Activity
# A549 [9] = experiment: Induction of apoptosis in human A549 cells assessed as early apoptotic cells at 200 nM after 72 hrs by annexin V-FITC/propidium iodide staining-based flow cytometric method (reference value: 3%); type: functional
# A549 [10] = experiment: Induction of apoptosis in human A549 cells assessed as late apoptotic cells at 200 nM after 72 hrs by annexin V-FITC/propidium iodide staining-based flow cytometric method (reference value: 4.1%); type: functional
# A549 [11] = experiment: Induction of apoptosis in human A549 cells assessed as viable cells at 200 nM after 72 hrs by annexin V-FITC/propidium iodide staining-based flow cytometric method (reference value: 92.8%); type: functional; conditions: A549, 72 h, read-out: Activity
# L02 [12] = experiment: Induction of apoptosis in human L02 cells assessed as late apoptotic cells at 10 nM after 72 hrs by annexin V-FITC/propidium iodide staining-based flow cytometric method (reference value: 1.6%); type: cell-based; conditions: l02, 72 h, 0.01 µM
# L02 [13] = experiment: Induction of apoptosis in human L02 cells assessed as necrotic cells at 10 nM after 72 hrs by annexin V-FITC/propidium iodide staining-based flow cytometric method (reference value: 0%); type: cell-based; conditions: l02, 72 h, 0.01 µM
# [14] = Induction of apoptosis in human L02 cells assessed as viable cells at 10 nM after 72 hrs by annexin V-FITC/propidium iodide staining-based flow cytometric method (reference value: 96.3%); type: cell-based; conditions: read-out: Activity
# L02 [15] = experiment: Induction of apoptosis in human L02 cells assessed as early apoptotic cells at 100 nM after 72 hrs by annexin V-FITC/propidium iodide staining-based flow cytometric method (reference value: 2%); type: cell-based; conditions: l02, 72 h, 0.1 µM
# L02 [16] = experiment: Induction of apoptosis in human L02 cells assessed as late apoptotic cells at 100 nM after 72 hrs by annexin V-FITC/propidium iodide staining-based flow cytometric method (reference value: 1.6%); type: cell-based; conditions: l02, 72 h, 0.1 µM
# L02 [17] = experiment: Induction of apoptosis in human L02 cells assessed as necrotic cells at 100 nM after 72 hrs by annexin V-FITC/propidium iodide staining-based flow cytometric method (reference value: 0%); type: cell-based; conditions: l02, 72 h, 0.1 µM
# [18] = Induction of apoptosis in human L02 cells assessed as viable cells at 100 nM after 72 hrs by annexin V-FITC/propidium iodide staining-based flow cytometric method (reference value: 96.3%); type: cell-based; conditions: read-out: Activity
# L02 [19] = experiment: Induction of apoptosis in human L02 cells assessed as early apoptotic cells at 200 nM after 72 hrs by annexin V-FITC/propidium iodide staining-based flow cytometric method (reference value: 2%); type: cell-based; conditions: l02, 72 h, 0.2 µM
# L02 [20] = experiment: Induction of apoptosis in human L02 cells assessed as late apoptotic cells at 200 nM after 72 hrs by annexin V-FITC/propidium iodide staining-based flow cytometric method (reference value: 1.6%); type: cell-based; conditions: l02, 72 h, 0.2 µM
# L02 [21] = experiment: Induction of apoptosis in human L02 cells assessed as necrotic cells at 200 nM after 72 hrs by annexin V-FITC/propidium iodide staining-based flow cytometric method (reference value: 0%); type: cell-based; conditions: l02, 72 h, 0.2 µM
# A549 [22] = experiment: Cell cycle arrest in human A549 cells assessed as accumulation at G0/G1 phase at 5 nM after 72 hrs by propidium iodide staining-based flow cytometric method (reference value: 61.29%); type: functional
# A549 [23] = experiment: Cell cycle arrest in human A549 cells assessed as accumulation at G0/G1 phase at 10 nM after 72 hrs by propidium iodide staining-based flow cytometric method (reference value: 61.29%); type: functional
# A549 [24] = experiment: Cell cycle arrest in human A549 cells assessed as accumulation at S phase at 10 nM after 72 hrs by propidium iodide staining-based flow cytometric method (reference value: 24.48%); type: functional
# A549 [25] = experiment: Cell cycle arrest in human A549 cells assessed as accumulation at G2/M phase at 10 nM after 72 hrs by propidium iodide staining-based flow cytometric method (reference value: 14.23%); type: functional
# A549 [26] = experiment: Cell cycle arrest in human A549 cells assessed as accumulation at G0/G1 phase at 100 nM after 72 hrs by propidium iodide staining-based flow cytometric method (reference value: 61.29%); type: functional
# A549 [27] = experiment: Cell cycle arrest in human A549 cells assessed as accumulation at G2/M phase at 100 nM after 72 hrs by propidium iodide staining-based flow cytometric method (reference value: 14.23%); type: functional
# L02 [28] = experiment: Cell cycle arrest in human L02 cells assessed as accumulation at G2/M phase at 5 nM after 72 hrs by propidium iodide staining-based flow cytometric method (reference value: 16.88%); type: ADME; conditions: l02, 72 h, 0.005 µM
# L02 [29] = experiment: Cell cycle arrest in human L02 cells assessed as accumulation at G2/M phase at 10 nM after 72 hrs by propidium iodide staining-based flow cytometric method (reference value: 16.88%); type: ADME; conditions: l02, 72 h, 0.01 µM
# L02 [30] = experiment: Cell cycle arrest in human L02 cells assessed as accumulation at G0/G1 phase at 100 nM after 72 hrs by propidium iodide staining-based flow cytometric method (reference value: 57.34%); type: ADME; conditions: l02, 72 h, 0.1 µM
# L02 [31] = experiment: Cell cycle arrest in human L02 cells assessed as accumulation at S phase at 100 nM after 72 hrs by propidium iodide staining-based flow cytometric method (reference value: 25.78%); type: ADME; conditions: l02, 72 h, 0.1 µM
# L02 [32] = experiment: Cell cycle arrest in human L02 cells assessed as accumulation at G2/M phase at 100 nM after 72 hrs by propidium iodide staining-based flow cytometric method (reference value: 16.88%); type: ADME; conditions: l02, 72 h, 0.1 µM
# A549 [33] = experiment: Induction of apoptosis in human A549 cells after 72 hrs by annexin V-FITC/propidium iodide staining-based flow cytometric method; type: functional, cell-based
smiles,measurement,setting,value
COc1cc([C@@H]2c3cc4c(cc3[C@H](OC(=O)CN(C)C(=O)OC(C)(C)C)[C@H]3COC(=O)[C@H]23)OCO4)cc(OC)c1OC,IC50,A549 [1],9.5 nM
same,IC50,MCF7,133 nM
same,selectivity ratio,[2],16.9
same,Activity,L02 [3],Non-Toxic
same,Activity,A549 [4],4.1%
same,Activity,A549 [5],0%
same,Activity,A549 [6],84.6%
same,Activity,A549 [7],3%
same,viability at 0.1 µM,A549 [8],12.4%
same,Activity,A549 [9],92.8%
same,Activity,A549 [10],2.1%
same,viability at 0.2 µM,A549 [11],5.1%
same,Activity,L02 [12],1.6%
same,Activity,L02 [13],0%
same,"viability at 72 h, 0.01 µM",[14],94.1%
same,Activity,L02 [15],10.6%
same,Activity,L02 [16],2.1%
same,Activity,L02 [17],0%
same,"viability at 72 h, 0.1 µM",[18],87.3%
same,Activity,L02 [19],65%
same,Activity,L02 [20],3.1%
same,Activity,L02 [21],0.1%
same,Activity,A549 [22],60.2%
same,Activity,A549 [23],59.2%
same,Activity,A549 [24],27.26%
same,Activity,A549 [25],13.54%
same,Activity,A549 [26],36.73%
same,Activity,A549 [27],17.14%
same,Activity,L02 [28],13.77%
same,Activity,L02 [29],13.11%
same,Activity,L02 [30],67.29%
same,Activity,L02 [31],18.93%
same,Activity,L02 [32],13.78%
same,Activity,A549 [33],Dose-dependent effect
